# Laboratory results reported in patent US20130165450A1, “Novel Thiazol-Carboximide Derivatives as PDK1 Inhibitors” (priority 2010, published 2013).
# Target: T1, recombinant human PDK1 (amino acids 51-556) (Homo sapiens, UniProt O15530)
# T1 construct: containing amino acids 51-556 of the human PDK1 enzyme; made in house
# T1 sequence (O15530 51-556): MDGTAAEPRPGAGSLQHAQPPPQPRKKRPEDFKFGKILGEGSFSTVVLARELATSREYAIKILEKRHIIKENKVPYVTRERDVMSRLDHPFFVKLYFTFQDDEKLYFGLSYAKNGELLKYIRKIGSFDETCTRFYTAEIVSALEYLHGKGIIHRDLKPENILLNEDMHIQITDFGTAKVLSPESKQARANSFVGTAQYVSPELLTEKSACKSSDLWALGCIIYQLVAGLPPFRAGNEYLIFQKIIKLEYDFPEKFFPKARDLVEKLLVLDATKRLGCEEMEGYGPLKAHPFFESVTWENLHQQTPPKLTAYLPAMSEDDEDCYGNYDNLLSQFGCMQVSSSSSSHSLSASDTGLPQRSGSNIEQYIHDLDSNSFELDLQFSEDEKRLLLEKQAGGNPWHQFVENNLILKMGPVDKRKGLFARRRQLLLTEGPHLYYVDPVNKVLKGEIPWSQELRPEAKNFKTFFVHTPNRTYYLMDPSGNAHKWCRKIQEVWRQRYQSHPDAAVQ
# Test: PDK1 IMAP fluorescence polarization kinase assay
# Format: biochemical
# Details: 10 nM PDK1, 100 nM peptide substrate, 100 nM PIFtide, 2.5 uM ATP, 1.5 hours; numeric values
row,Compound,IC50
1,"CNC1(C(N)=O)CCN(c2ccc(N)cc2NC(=O)c2csc(-c3cnn(Cc4cccs4)c3)n2)CC1 [Compound 5, 1-[4-amino-2-[[[2-[1-(2-thienylmethyl)-1H-pyrazol-4-yl]-4-thiazolyl]carbonyl]amino]phenyl]-4-(methylamino)-4-piperidinecarboxamide]",81 nM

# Same assay, conditions: 10 nM PDK1, 100 nM peptide substrate, 100 nM PIFtide, 2.5 uM ATP, 1.5 hours; rated A-D
row,Compound,IC50
1,"Nc1ccc(N2CCC[C@@H](N)C2)c(NC(=O)c2csc(-c3cnn(Cc4ccccc4F)c3)n2)c1 [Compound 21, N-[5-amino-2-(3(R)-amino-1-piperidinyl)phenyl]-2-[1-[(2-fluorophenyl)methyl]-1H-pyrazol-4-yl]-4-thiazolecarboxamide]",1 to 50 nM
2,"Nc1ccc(N2CCC[C@@H](N)C2)c(NC(=O)c2csc(-c3cnn(Cc4ccccc4)c3)n2)c1 [Compound 3, N-[5-amino-2-(3(R)-amino-1-piperidinyl)phenyl]-2-[1-(phenylmethyl)-1H-pyrazol-4-yl]-4-thiazolecarboxamide]",1 to 50 nM
3,"N[C@@H]1CCCN(c2c(F)cccc2NC(=O)c2csc(-c3cnn(Cc4ccccc4OC(F)F)c3)n2)C1 [Compound 36, N-[2-(3(R)-amino-1-piperidinyl)-3-fluorophenyl]-2-[1-[[2-(difluoromethoxy)phenyl]methyl]-1H-pyrazol-4-yl]-4-thiazolecarboxamide]",251 to 1000 nM
4,"Nc1ccc(N2CCC[C@@H](N)C2)c(NC(=O)c2csc(-c3cnn(Cc4ccccn4)c3)n2)c1 [Compound 13, N-[5-amino-2-(3(R)-amino-1-piperidinyl)phenyl]-2-[1-(2-pyridinylmethyl)-1H-pyrazol-4-yl]-4-thiazolecarboxamide]",1 to 50 nM
5,"NCc1ccccc1Cn1cc(-c2nc(C(=O)Nc3cccc(F)c3N3CCC[C@@H](N)C3)cs2)cn1 [Compound 51, 2-[1-[[2-(aminomethyl)phenyl]methyl]-1H-pyrazol-4-yl]-N-[2-(3(R)-amino-1-piperidinyl)-3-fluorophenyl]-4-thiazolecarboxamide]",251 to 1000 nM
6,"Nc1ccc(N2CCC[C@@H](N)C2)c(NC(=O)c2csc(-c3cnn(Cc4ccc(F)c(F)c4)c3)n2)c1 [Compound 14, N-[5-amino-2-(3(R)-amino-1-piperidinyl)phenyl]-2-[1-[(3,4-difluorophenyl)methyl]-1H-pyrazol-4-yl]-4-thiazolecarboxamide]",1 to 50 nM
7,"Nc1ccc(N2CCC[C@@H](N)C2)c(NC(=O)c2csc(-c3cnn(Cc4ccncc4)c3)n2)c1 [Compound 9, N-[5-amino-2-(3(R)-amino-1-piperidinyl)phenyl]-2-[1-(4-pyridinylmethyl)-1H-pyrazol-4-yl]-4-thiazolecarboxamide]",51 to 250 nM
8,"N[C@@H]1CCCN(c2c(F)cccc2NC(=O)c2csc(-c3cnn(Cc4c(F)cccc4C(F)(F)F)c3)n2)C1 [Compound 35, N-[2-(3(R)-amino-1-piperidinyl)-3-fluorophenyl]-2-[1-[[2-fluoro-6-(trifluoromethyl)phenyl]methyl]-1H-pyrazol-4-yl]-4-thiazolecarboxamide]",> 1000 nM
9,"CCOC(=O)C1CCN(c2ccc(N)cc2NC(=O)c2csc(-c3cnn(Cc4cccs4)c3)n2)CC1 [Compound 12, ethyl 1-[4-amino-2-[[[2-[1-(2-thienylmethyl)-1H-pyrazol-4-yl]-4-thiazolyl]carbonyl]amino]phenyl]-4-piperidinecarboxylate]",251 to 1000 nM
10,"Nc1ccc(N2CCC3(CCCNC3)CC2)c(NC(=O)c2csc(-c3cnn(Cc4ccccn4)c3)n2)c1 [Compound 20, N-[5-amino-2-(2,9-diazaspiro[5.5]undec-9-yl)phenyl]-2-[1-(2-pyridinylmethyl)-1H-pyrazol-4-yl]-4-thiazolecarboxamide]",51 to 250 nM
11,"N[C@@H]1CCCN(c2c(F)cccc2NC(=O)c2csc(-c3cnn(Cc4ccccc4SC(F)(F)F)c3)n2)C1 [Compound 37, N-[2-(3(R)-amino-1-piperidinyl)-3-fluorophenyl]-2-[1-[[2-[(trifluoromethyl)thio]phenyl]methyl]-1H-pyrazol-4-yl]-4-thiazolecarboxamide]",> 1000 nM
12,"CC(c1ccccc1)n1cc(-c2nc(C(=O)Nc3cc(N)ccc3N3CCC[C@@H](N)C3)cs2)cn1 (stereo partly drawn) [Compound 30, N-[5-amino-2-(3(R)-amino-1-piperidinyl)phenyl]-2-[1-(1-phenylethyl)-1H-pyrazol-4-yl]-4-thiazolecarboxamide]",51 to 250 nM
13,"Nc1ccc(N2CCC[C@@H](N)C2)c(NC(=O)c2csc(-c3cnn(Cc4cc(F)cc(F)c4)c3)n2)c1 [Compound 16, N-[5-amino-2-(3(R)-amino-1-piperidinyl)phenyl]-2-[1-[(3,5-difluorophenyl)methyl]-1H-pyrazol-4-yl]-4-thiazolecarboxamide]",1 to 50 nM
14,"N[C@@H]1CCCN(c2c(F)cccc2NC(=O)c2csc(-c3cnn(CCOCc4ccccc4)c3)n2)C1 [Compound 40, N-[2-(3(R)-amino-1-piperidinyl)-3-fluorophenyl]-2-[1-[2-(phenylmethoxy)ethyl]-1H-pyrazol-4-yl]-4-thiazolecarboxamide]",251 to 1000 nM
15,"N[C@@H]1CCCN(c2c(F)cccc2NC(=O)c2csc(-c3cnn(Cc4ccccc4Br)c3)n2)C1 [Compound 49, N-[2-(3(R)-amino-1-piperidinyl)-3-fluorophenyl]-2-[1-[(2-bromophenyl)methyl]-1H-pyrazol-4-yl]-4-thiazolecarboxamide]",251 to 1000 nM
16,"N[C@@H]1CCCN(c2c(F)cccc2NC(=O)c2csc(-c3cnn(CCCOc4ccccc4)c3)n2)C1 [Compound 43, N-[2-(3(R)-amino-1-piperidinyl)-3-fluorophenyl]-2-[1-(3-phenoxypropyl)-1H-pyrazol-4-yl]-4-thiazolecarboxamide]",> 1000 nM
17,"Nc1ccc(N2CC[C@@H](N)C2)c(NC(=O)c2csc(-c3cnn(Cc4ccccn4)c3)n2)c1 [Compound 29, N-[5-amino-2-(3(R)-amino-1-pyrrolidinyl)phenyl]-2-[1-(2-pyridinylmethyl)-1H-pyrazol-4-yl]-4-thiazolecarboxamide]",51 to 250 nM
18,"NCC1CCN(c2ccc(N)cc2NC(=O)c2csc(-c3cnn(Cc4cccs4)c3)n2)CC1 [Compound 8, N-[5-amino-2-[4-(aminomethyl)-1-piperidinyl]phenyl]-2-[1-(2-thienylmethyl)-1H-pyrazol-4-yl]-4-thiazolecarboxamide]",1 to 50 nM
